Source: patent US9320760B2, “Compositions and methods of use of compounds to increase cancer patient survival time” (BioNumerik Pharmaceuticals, Inc., priority 2008, dated 2016)
“And” between values parts separate entries of the source, which are not always exact repeats. Identical values can stand only once.

What was measured:
[1] = test system: patients with advanced non-small cell lung carcinoma (NSCLC), including the adenocarcinoma sub-type; assay: Japan Phase III Clinical Trial (paclitaxel + cisplatin with Tavocept or placebo); type: in vivo, human
Description: Patients admitted into the trial included those patients without previous treatment (excluding surgical treatment, administration of Picibanil into the serous membrane, irradiation of 30% or less hematopoietic bone, or oral chemotherapeutic agents within 3 months of entry in the trial).
The Japan Phase III Clinical Trial was conducted as a double-blind study because peripheral neuropathy is diagnosed based on subjective symptoms evaluated through clinical interviews, lab tests, and the like. Accordingly, evaluations by both physicians and patients are highly important. […] A placebo was used as control since there is no established therapy or drug for preventing peripheral neuropathy. Because the severity of peripheral neuropathy is evaluated based on patient's reports (i.e., subjective symptoms), the Peripheral Neuropathy Questionnaire (PNQ©) was used in primary evaluation. CIPN-20 and NCI-CTC were used in secondary evaluation. The incidence and severity of adverse reactions, time to their onset, etc. and the like, were compared between patients treated with Tavocept™ and those given a placebo using the aforementioned methods.

[2] = biological target: T1, GST (m1-1 isotype of GST) (Homo sapiens, UniProt P09488); assay: GST assay: conjugation of reduced glutathione to 1-chloro-2,4-dinitrobenzene (CDNB), 340 nm; type: biochemical; conditions: for Slope Abs/min: individual assay run, 1 mM GSH, slope 8.9 to 13.1 min, 20° C.; for Slope Mean: mean of three runs (0 mM control 0.0449); for Relative Activity: normalized to reactions with no Tavocept
T1 construct: purchased
T1 sequence (P09488 1-218): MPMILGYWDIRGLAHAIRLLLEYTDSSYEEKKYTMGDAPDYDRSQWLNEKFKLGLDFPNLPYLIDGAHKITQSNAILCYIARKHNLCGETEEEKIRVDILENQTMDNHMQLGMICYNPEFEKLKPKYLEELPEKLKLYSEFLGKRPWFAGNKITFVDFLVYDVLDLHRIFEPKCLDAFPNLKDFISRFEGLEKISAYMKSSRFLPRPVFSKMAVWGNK
Description: An in vitro assay for GST has been developed and reported. See, Meyer, D. J. and Ketterer, B., Purification of soluble human glutathione S-transferases. Methods Enzymol. 252:53-65 (1995). This assay monitors the conjugation of reduced glutathione to 1-chloro-2,4-dinitrobenzene (CDNB), as illustrated in Reaction Scheme II, below.
Reduced thiol forms a conjugate with CDNB (extinction coefficient=9600 M^−1 cm^−1), which is detected at 340 nm. […] A typical 1 mL assay was set up by mixing 500 μL NaHPO4 buffer (200 mM, pH 6.5), 20 μL GSH (50 mM), 20 μL CDNB (50 mM), and 458 μL sterile water. Reactions were incubated at 20° C. in the cuvette holder of the spectrophotometer for approximately 5 min. prior to initiating the assay with the addition of enzyme (m1-1 isotype of GST; activity >100 U/mg). The enzyme stock purchased from the vendor was diluted 1:100 in 200 mM NaHPO4 buffer (pH 6.5), and 2 μL of the diluted enzyme was added to initiate the reaction. The final amount of enzyme added to the assay was typically 0.002 U. Assays were run at 20° C. in 1 mL quartz cuvettes (Hellma Scientific). Slopes were measured in the linear range of the assay (i.e., typically between 5 to 10 min.). […] Final reaction volumes were fixed at 1 mL by adjusting the amount of water added.
All UV-visible assays were performed using a Varian Cary 100 spectrophotometer equipped with a thermostatic jacketed multi-cell holder. The default parameters of the Cary Win UV Enzyme Kinetics application (version 2.00) were used; with the exceptions of using both the visible and deuterium lamps, and setting the wavelength to 340 nm, the temperature to 20° C., and the maximal duration of the assay at 30 minutes.
Raw data was obtained on a Cary 100 spectrophotometer. […] The first phase was a baseline corresponding to the time prior to addition of enzyme (typically 2-5 min. in duration). Assays in the first phase of the reaction contained only substrate, buffer and (in some assays) Tavocept™. The spectrophotometer was put in pause mode while enzyme (GST) was added and mixed into the assay reactions. No absorbance values were collected during the process of enzyme addition. The region of experimental interest was during the linear phase of the enzyme reaction, which immediately followed the addition of enzyme. The linear phase is of experimental interest because it is when the classical model of Michaelis-Menton kinetics holds true. During this phase the substrate concentration is high (>Km for enzyme) and, therefore, the rate of catalysis is independent of the substrate concentration. It was during this time that reaction rates (i.e., slopes of change in absorbance with time) were measured using the Cary 100 software. The duration of the linear phase was between 5-10 minutes, depending upon the specific reaction conditions. Reactions were considered complete when substrate concentration was no longer saturating and became a rate limiting factor of the assay. When the substrate was limiting, the reaction rate deviated from linearity. This end phase of the reaction was typically observed after 10 to 15 minutes. Absorbance and time values during the end phase of the reaction were not used in slope calculations because the reaction was effectively over at this point as the reaction no longer followed the classical Michaelis-Menton model for enzyme kinetics. Completion of the reaction on the Cary software could be detected visually by overlaying a straight line beginning at the addition of enzyme and extending past the end phase of the assay curve. Upon completion of a set of reactions data was stored as an electronic “batch” file. Sigma Plot was used specifically to show the mean of assays run in triplicate with linear regression lines and error bars illustrating standard deviation. Descriptive statistics (mean and standard deviation) were used to describe and summarize the results of the experiments. The results of these experiments are illustrated in FIG. 16. […]

[3] = FIG. 7, Tavocept arm (5 in the placebo arm)

## O=S(=O)([O-])CCSSCCS(=O)(=O)[O-].[Na+].[Na+] [Tavocept™, disodium 2,2′-dithio-bis-ethane sulfonate]
[1]; FIG. 5, paclitaxel/Tavocept/cisplatin regimen vs paclitaxel/saline placebo/cisplatin regimen, NSCLC patients
  reduction in severe (Grade D or E) peripheral neuropathy (PNQ, Primary Endpoint): ~50%
[1]; [3]
  patients with Grade 3 (severe) decrease in hematocrit levels: 1 patients
  patients with Grade 3 (severe) decrease in red blood cell levels: 1 patients
[1]; FIG. 7, Tavocept arm (8 in the placebo arm)
  patients with Grade 3 (severe) decrease in hemoglobin: 2 patients
[1]; FIG. 8, Tavocept arm (28.6% in the placebo arm)
  response rate as measured by the IRC: 33.3%
[1]; FIG. 8, Tavocept arm (33.0% in the placebo arm)
  Response Rate, as measured by physicians (Doctor): 41.9%
[1]; FIG. 9, NSCLC patients incl. adenocarcinoma, paclitaxel/Tavocept/cisplatin vs paclitaxel/saline placebo/cisplatin
  increase in median survival time: up to 40 days
[1]; FIG. 10, female NSCLC patients, paclitaxel/Tavocept/cisplatin vs paclitaxel/saline placebo/cisplatin
  survival period, female patient population: longer survival period
[1]; FIG. 11, adenocarcinoma sub-type, paclitaxel/Tavocept/cisplatin vs paclitaxel/saline placebo/cisplatin
  increase in median survival time, adenocarcinoma patients: up to 138 days
[1]; FIG. 11, adenocarcinoma sub-type, paclitaxel/Tavocept/cisplatin vs paclitaxel/saline placebo/cisplatin, listed as Tavocept
  increase in median survival time, adenocarcinoma patients: approximately 138 days
[1]; Tavocept and chemotherapy vs chemotherapy and placebo, result in words
  chemotherapy-induced vomiting/emesis and kidney damage: medically-important reductions
[1]; adenocarcinoma patients in the Tavocept arm
  increase in median survival time, adenocarcinoma patients: ~4.5 months
[2]; Tavocept 1.1 mM
  Slope Abs/min: 0.0437 Abs/min and 0.0407 Abs/min and 0.0427 Abs/min
  Slope Mean: 0.0424 Abs/min
  Relative Activity: 94.4%
[2]; Tavocept 3.3 mM
  Slope Abs/min: 0.0295 Abs/min and 0.0242 Abs/min and 0.0284 Abs/min
  Slope Mean: 0.0274 Abs/min
  Relative Activity: 61%
[2]; Tavocept 10 mM
  Slope Abs/min: 0.0155 Abs/min and 0.0158 Abs/min and 0.0139 Abs/min
  Slope Mean: 0.0151 Abs/min
  Relative Activity: 33.6%
[2]; Tavocept raised from 1.1 mM to 3.3 mM
  increase in GST inhibition: ~6 times
